Test results as given in patent US11458189B2, “Cytoprotective drugs” (BALMES TRANSPLANTATION, priority 2017, dated 2022).
Starred links: 1 amine or outer side, 2 acyl side, 3 side chain; linkers in the order of their positions; H or OH if unused. Positions of bridges follow the written chain, without caps; N, C: chain ends. Non-standard residues stand in square brackets, D forms with d. Residues, ends and D or L forms follow the SMILES beside them. ξ: configuration not given here. *: point of attachment. pTerphenylCO(4''-OnC5H11) = CCCCCOc1ccc(-c2ccc(-c3ccc(C(=O)*)cc3)cc2)cc1; Orn(4R-OH,5R-OH) = O=C([C@H](C[C@@H](O)[C@@H](O)N[*:3])N[*:1])[*:2]; hTyr(3S-OH,4S-OH) = N[C@H](C(=O)O)[C@H](O)[C@@H](O)c1ccc(O)cc1; Pro(3S-OH,4S-Me) = C[C@H]1CN[C@H](C(=O)O)[C@H]1O; ξPro(4R-OH) = O=C(O)C1C[C@@H](O)CN1

System: Human Astrocytes (HA)
Assay: Oxygen and glucose deprivation followed by replenishment, cell survival (calcein AM), HA
Type: cell-based
Procedure: Anidulafungin and micafungin were tested on Human Renal Glomerular Endothelial Cells (HRGEC, Innoprot P10665), on Human Renal Proximal Tubular Epithelial Cells (HRPTEpiC, Innoprot P10662), on Human Astrocytes (HA, caltag SC-1800), on Human Cardiac Microvascular Endothelial Cells (HCMEC, Caltag SC-6000), on Human Hepatic Sinusoidal Endothelial Cells (HHSEC, Caltag SC-5000), on Rat Primary Kidney Glomerular Endothelial cells (Cellbiologics, RN-6014G) and on Bovine Brain Microvascular Endothelial Cells (BBMEC, Caltag SC-B100).
In a first phase, these isolated, purified and cryopreserved cells are thawed and multiplied according to the supplier's recommendations in T75 or T175 flasks pre-coated with 2 μg of fibronectin/[…] (CORNING) for HRGEC, HCMEC, HHSEC and BBMEC, or 2 μg poly-L-lysin/cm^2 (Caltag SC-0403) for HRPTEpiC and HA, or 15 mL/flask 175 cm^2 gelatin-based solution (Cellbiologics) in the presence of endothelial cell supplemented growth medium ECM (P60104, INNOPROT, Caltag, SC-1001) for HRGEC, HCMEC, HHSEC, RPKGEC or BBMEC, or astrocyte cell supplemented growth medium AM (Caltag SC-1801) for HA or epithelial cell supplemented growth medium EpiCM (P60106, INNOPROT) for HRPTEpiC, at 37° C. under 5% CO2 and saturated humidity until their confluency. They are then harvested by trypsinization according to the method described by the supplier for exactly 5 minutes and then reseeded in new flasks a maximum of three times.
To carry out the oxygen and glucose deprivation test followed by their replenishment, the cells will be seeded in 96-well black plates with transparent flat bottom (GREINER). Once a sufficient number of cells has been obtained to allow seeding of 2000 to 15000 cells per well of 96-well plates depending on the cell type, the cells are seeded in these 96-well plates previously coated with an extracellular matrix as listed above for the flasks. The cells are cultured for 5 to 8 days according to the cell type, in the presence of the same growth medium as in the flask as described above except for HRGEC and HRPTEpiC for which DMEM (DUTSCHER) with 1 g/L of supplemented glucose is used, at 37° C. under 5% CO2 and saturated humidity to obtain confluency.
On the first day of oxygen and glucose deprivation, (5th, 6th, 7th or 8th day of culture), the culture conditions are drastically changed. The medium of all plates is removed and replaced by DMEM (DUTSCHER) medium without glucose and supplemented only with 1% penicillin-streptomycin (DUTSCHER). Anidulafungin or micafungin dissolved in dimethyl sulfoxide (DMSO) is then added to each well at the desired concentration, resulting in a maximum of 1% DMSO, and the plates are placed under hypoxia at <1% 02 and 5% CO2 at 37° C. for 24 hours of culture. Each compound was tested in a concentration range.
After 24 hours, the growth medium is changed and replaced by a richer medium, DMEM (DUTSCHER) at 1 g/L glucose and 2% FBS (INNOPROT) and 1% penicillin-streptomycin (DUTSCHER). These media will have been pre-equilibrated at 37° C. in advance. The cells are then returned to culture at 37° C. under 20% 02 and 5% CO2 for 22h.
After 22 hours of reoxygenation, the potential protective effect of anidulafungin or micafungin is measured by a cell viability test using calcein AM (CORNING), which is a dye substrate. The calcein AM can easily cross the cell membrane of the viable cells. The AM ester groups mask the part of the molecule that chelates calcium. Once inside the cells, the (non-fluorescent) calcein AM is hydrolyzed to (fluorescent) calcein by endogenous esterases. The resulting calcein molecule binds to calcium inside the cell and remains trapped inside the cell. These molecules emit strong green fluorescence when subjected to […] of a particular wavelength (495 nm). Since dead cells lack esterase activity, only living cells are labelled.
This cell viability test is performed in two steps. […]

[1] = [Anidulafungin] log μM 0.1760913
[2] = [Anidulafungin] log μM 0.7781513
[3] = [Anidulafungin] log μM −0.1249387
[4] = [Anidulafungin] log μM −0.30103
[5] = [Anidulafungin] log μM −0.5228788

## CCCCCOc1ccc(-c2ccc(-c3ccc(C(=O)N[C@H]4C[C@@H](O)[C@@H](O)NC(=O)[C@@H]5[C@@H](O)[C@@H](C)CN5C(=O)[C@H]([C@@H](C)O)NC(=O)[C@H]([C@H](O)[C@@H](O)c5ccc(O)cc5)NC(=O)C5C[C@@H](O)CN5C(=O)[C@H]([C@@H](C)O)NC4=O)cc3)cc2)cc1 (stereo partly drawn) [Anidulafungin] ({pTerphenylCO(4''-OnC5H11)}-[Orn(4R-OH,5R-OH)]T[ξPro(4R-OH)][hTyr(3S-OH,4S-OH)]T[Pro(3S-OH,4S-Me)]; lactam 1-C)
[Anidulafungin] log μM 0
  Globalfluo assay 1: 11468420 arbitrary units
  Globalfluo assay 2: 12221770 arbitrary units
  Globalfluo assay 3: 14645590 arbitrary units
  Mean globalfluo: 12778593 arbitrary units
  Survival rate (%): 15%
[1]
  Globalfluo assay 1: 11838960 arbitrary units
  Globalfluo assay 2: 12087610 arbitrary units
  Globalfluo assay 3: 13326480 arbitrary units
  Mean globalfluo: 12417683 arbitrary units
  Survival rate (%): 13%
[Anidulafungin] log μM 0.30103
  Globalfluo assay 1: 13177930 arbitrary units
  Globalfluo assay 2: 13103050 arbitrary units
  Globalfluo assay 3: 13640130 arbitrary units
  Mean globalfluo: 13307037 arbitrary units
  Survival rate (%): 18%
[Anidulafungin] log μM 0.60206
  Globalfluo assay 1: 12006890 arbitrary units
  Globalfluo assay 2: 13270810 arbitrary units
  Globalfluo assay 3: 14798310 arbitrary units
  Mean globalfluo: 13358670 arbitrary units
  Survival rate (%): 18%
[2]
  Globalfluo assay 1: 14108250 arbitrary units
  Globalfluo assay 2: 14242150 arbitrary units
  Globalfluo assay 3: 13880120 arbitrary units
  Mean globalfluo: 14076840 arbitrary units
  Survival rate (%): 22%
[Anidulafungin] log μM 0.90309
  Globalfluo assay 1: 13394210 arbitrary units
  Globalfluo assay 2: 14898570 arbitrary units
  Globalfluo assay 3: 14923380 arbitrary units
  Mean globalfluo: 14405387 arbitrary units
  Survival rate (%): 24%
[3]
  Globalfluo assay 1: 9674527 arbitrary units
  Globalfluo assay 2: 11462560 arbitrary units
  Globalfluo assay 3: 11240740 arbitrary units
  Mean globalfluo: 10792609 arbitrary units
  Survival rate (%): 4%
[4]
  Globalfluo assay 1: 12822290 arbitrary units
  Globalfluo assay 2: 11197900 arbitrary units
  Globalfluo assay 3: 11873360 arbitrary units
  Mean globalfluo: 11964517 arbitrary units
  Survival rate (%): 10%
[5]
  Globalfluo assay 1: 11050980 arbitrary units
  Globalfluo assay 2: 10353030 arbitrary units
  Globalfluo assay 3: 11612880 arbitrary units
  Mean globalfluo: 11005630 arbitrary units
  Survival rate (%): 5%
[Anidulafungin] log μM −1
  Globalfluo assay 1: 9709693 arbitrary units
  Globalfluo assay 2: 10543570 arbitrary units
  Globalfluo assay 3: 12170290 arbitrary units
  Mean globalfluo: 10807851 arbitrary units
  Survival rate (%): 4%
[Anidulafungin] log μM −2
  Globalfluo assay 1: 10301450 arbitrary units
  Globalfluo assay 2: 9760112 arbitrary units
  Globalfluo assay 3: 11132460 arbitrary units
  Mean globalfluo: 10398007 arbitrary units
  Survival rate (%): 2%
